Data from patent US20260042745A1, “PYRROLIDINE-2-CARBOXAMIDE DERIVATIVES AS PROSTAGLANDIN E2 RECEPTOR 4 (EP4) AGONISTS FOR THE TREATMENT OF GASTROINTESTINAL AND PULMONARY DISEASES” (NXERA PHARMA UK LIMITED, priority 2022, published 2026).

Legend:
[1] = Unidirectional Caco-2 cell permeability assay; type: in vitro ADME; details: human, apical pH 6.5, basolateral pH 7.4, 1 hour, 37° C., n=2
Procedure: Caco-2 cells (ECACC) were seeded onto 24-well Transwell plates at 2×10^5 cells per well and used in confluent monolayers after a 21 day culture at 37° C. under 500 CO2. Test compounds were incubated at 10 μM, 0.2% DMSO final, n=2 in assay buffer (Hanks balanced salt solution supplemented with 25 mM HEPES, adjusted to pH 6.5). Hanks balanced salt solution supplemented with 25 mM HEPES, adjusted to pH 7.4 (0.2% DMSO final) was used for the basolateral chamber (as receiver).
Incubations were performed at 37° C., with samples removed from both donor and acceptor chambers at T=0 and 1 hour and compound analysed by mass spectrometry (LC-MS/MS) including an analytical internal standard ([…] carbamazepine).
Apparent permeability (Papp) values are shown in Table 3 and were determined from the relationship:
Where V is the volume of each Transwell compartment (apical 125 μL, basolateral 600 μL), and concentrations are the relative MS responses for compound (normalized to internal standard) in the donor chamber before incubation and acceptor chamber at the end of the incubation Area=area of cells exposed for drug transfer (0.33 cm^2).
Lucifer Yellow (LY) was added to the apical buffer in all wells to assess viability of the cell layer. As LY cannot freely permeate lipophilic barriers, a high degree of LY transport indicates poor integrity of the cell layer and wells with a LY Papp>10×10^−6 cm/s were rejected.
Compound recovery from the wells was determined from MS responses (normalized to internal standard) in donor and acceptor chambers at the end of incubation compared to response in the donor chamber pre-incubation.

[2] = molecular target: T1, human EP4 (Homo sapiens, UniProt P35408); assay: cAMP Gs functional assay (HTRF cAMP dynamic-2) in EP4-transfected HEK293 cells; type: cell-based; details: HEK293 cells transfected with EP4 BacMam virus; for EC50: 30 min at 37° C., HTRF cAMP, read-out: cAMP human EP4 pEC50 (converted); for cAMP human EP4 Emax: positive control PGE2
T1 construct: expressed in transfected cells; host or cells: HEK293 cells transduced with EP4 BacMam baculovirus
T1 sequence (P35408 whole entry): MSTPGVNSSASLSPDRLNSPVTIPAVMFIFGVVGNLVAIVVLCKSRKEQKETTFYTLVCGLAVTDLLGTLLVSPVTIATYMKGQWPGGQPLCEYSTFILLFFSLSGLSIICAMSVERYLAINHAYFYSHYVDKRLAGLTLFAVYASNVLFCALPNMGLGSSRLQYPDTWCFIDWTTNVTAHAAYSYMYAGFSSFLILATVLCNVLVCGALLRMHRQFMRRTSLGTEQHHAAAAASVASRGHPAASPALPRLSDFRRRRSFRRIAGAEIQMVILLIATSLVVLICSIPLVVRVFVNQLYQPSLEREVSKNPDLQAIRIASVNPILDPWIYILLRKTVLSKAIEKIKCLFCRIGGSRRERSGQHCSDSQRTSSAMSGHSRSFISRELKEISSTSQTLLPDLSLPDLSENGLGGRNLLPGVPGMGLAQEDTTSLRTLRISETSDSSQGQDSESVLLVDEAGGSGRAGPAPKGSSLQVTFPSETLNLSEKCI
Procedure: Cloning, Baculovirus generation, large scale infection of HEK293 cells and membrane preparation: Human prostaglandin E2 receptor 4 (EP4) was cloned into pBacMam expression vector (GeneScript, UK). Transposition of EP4 DNA was performed using Invitrogen's Bac-to-Bac Baculovirus Expression Systems. P0 baculovirus was generated by transfecting SF9 Cells with bacmid DNA using Cellfectin II transfection reagent (ThermoFisher Scientific, UK). Following P0 generation P1 virus was then generated ready for large scale infection and membrane preparation. HEK293 cells were grown in DMEM (ThermoFisher Scientific, UK), supplemented with 10% heat inactivated fetal bovine serum (FBS). Cells were infected at a seeding density of 3.5 million cells/mL in 500 cm^3 flasks at 5% v/v EP4 Bacman. Expression was carried out over a 36 hour period at 37° C. with 5% CO2. The cells were removed using PBS and a cell scrapper. The cell culture was centrifuged at 2500 RPM for 10 mins at 4° C. The supernatant was then poured off and the pellet stored at −80° C. The pellet was defrosted and re-suspended in 15 mL of homogenising buffer (20 mM HEPES, 10 mM EDTA, pH 7.4). Then homogenised in mechanical homogeniser (VMR) for 10 seconds. The membrane was centrifuged in centrifuge tubes at 40,000 g for 15 mins at 4° C. The supernatant was poured away and re-suspended in 15 mL of homogenising buffer and homogenised for 20 seconds. The membrane was then centrifuged at 40,000 g for 45 mins at 4° C. The membrane was then re-suspended in 3 mL of storage buffer (20 mM HEPES, 0.1 mM EDTA, pH 7.4) mixing well. The resulting membranes were then stored at −80° C.
cAMP Gs Functional Assay: cAMP production following EP4 receptor activation was determined using the Homogeneous Time-Resolved Fluorescence (HTRF) cAMP dynamic-2 assay (Cisbio, France). HEK293 cells were transfected using a 0.5% EP4 Bacman virus for 36 hours, before dissociating the cells, and freezing at −150° C.
On the day of testing, increasing concentration of test compounds, alongside positive controls ([…] PGE2 (Tocris, Abingdon, UK)) and negative control (DMSO (Sigma-Aldrich, UK) were added to a ProxiPlate-384 Plus, White 384-shallow well Mircoplate, (PerkinElmer, USA) using the ECHO dispense.
Cells were defrosted in a water bath and resuspended in DMEM supplemented with 10% FBS before centrifuging at 1200 RPM for 5 mins to form a pellet. The pellet was resuspended in assay buffer (DMEM+0.5 mM IBMX (Tocris, Abingdon, UK)) to 0.5×10^6 cells/mL. Cell suspension, for a final assay concentration of 5000 cell/well was added using the multidrop to the pre-dispensed assay plate. The plate was then incubated at 37° C. for 30 mins, with 5% CO2. The cAMP production was determined as manufacturer's instructions, before plates were read on a PheraStar fluorescence plate reader (BMG LabTech, Germany).

| SMILES | Papp A→B at 1 h, 10 μM [1] | EC50 [2] | cAMP human EP4 Emax [2] |
| --- | --- | --- | --- |
| Cc1cc(S(N)(=O)=O)ccc1-c1cccc(CN2CCC[C@@H]2C(=O)NCc2ccc(C(=O)O)c(O)c2)c1 [Example 16, (R)-2-hydroxy-4-((1-((2′-methyl-4′-sulfamoyl-[1,1′-biphenyl]-3-yl)methyl)pyrrolidine-2-carboxamido)methyl)benzoic acid] | 0.17 ×10⁻⁶ cm/s | 20 nM | 98% |
| C[C@H](NC(=O)[C@H]1CCCN1Cc1ccc(O)c(-c2ccc(S(N)(=O)=O)cc2)c1)c1ccc(C(=O)O)cc1 [Example 19] | < 0.12 ×10⁻⁶ cm/s | 100 nM | 90% |
| Cc1cc(S(N)(=O)=O)ccc1-c1cc(O)cc(CN2CCC[C@@H]2C(=O)N[C@@H](C)c2ccc(C(=O)O)cc2)c1 [Example 20, 4-((S)-1-((R)-1-((5-hydroxy-2′-methyl-4′-sulfamoyl-[1,1′-biphenyl]-3-yl)methyl)pyrrolidine-2-carboxamido)ethyl)benzoic acid] | < 0.1 ×10⁻⁶ cm/s | 0.631 nM | 98% |
| Cc1cc(C(N)=O)ccc1-c1cc(O)cc(CN2C[C@H](O)C[C@@H]2C(=O)N[C@@H](C)c2ccc(C(=O)O)cc2)c1 [Example 21, 4-((S)-1-((2R,4R)-1-((4′-carbamoyl-5-hydroxy-2′-methyl-[1,1′-biphenyl]-3-yl)methyl)-4-hydroxypyrrolidine-2-carboxamido)ethyl)benzoic acid] | < 0.11 ×10⁻⁶ cm/s | 7.94 nM | 96% |
| C[C@H](NC(=O)[C@H]1CCCN1Cc1cccc(-c2ccc(S(N)(=O)=O)cc2O)c1)c1ccc(C(=O)O)cc1 [Example 22] | < 0.1 ×10⁻⁶ cm/s | 126 nM | 85% |
| Cc1cc(S(N)(=O)=O)ccc1-c1cncc(CN2CCC[C@@H]2C(=O)N[C@@H](C)c2ccc(C(=O)O)cc2)c1 [Example 24, 4-((S)-1-((R)-1-((5-(2-methyl-4-sulfamoylphenyl)pyridin-3-yl)methyl)pyrrolidine-2-carboxamido)ethyl)benzoic acid] | 0.16 ×10⁻⁶ cm/s | 25.1 nM | 99% |
| Cc1cc(C(N)=O)ccc1-c1cccc(CN2CC3CC2(C(=O)N[C@@H](C)c2ccc(C(=O)O)cc2)C3)c1 [Example 28, (S)-4-(1-(2-((4′-carbamoyl-2′-methyl-[1,1′-biphenyl]-3-yl)methyl)-2-azabicyclo[2.1.1]hexane-1-carboxamido)ethyl)benzoic acid] | < 0.12 ×10⁻⁶ cm/s | 25.1 nM | 76% |
| Cc1cc(S(N)(=O)=O)ccc1-c1cccc(CN2CCC[C@@H]2C(=O)NC2(c3ccc(C(=O)O)cc3)CC2)c1 [Example 30, (R)-4-(1-(1-((2′-methyl-4′-sulfamoyl-[1,1′-biphenyl]-3-yl)methyl)pyrrolidine-2-carboxamido)cyclopropyl)benzoic acid] | 0.29 ×10⁻⁶ cm/s | 0.501 nM | 99% |
| Cc1cc(C(N)=O)ccc1-c1cc(O)cc(CN2CCC[C@@H]2C(=O)N[C@@H](C)c2ccc(C(=O)O)c(O)c2)c1 [Example 34, 4-((S)-1-((R)-1-((4′-carbamoyl-5-hydroxy-2′-methyl-[1,1′-biphenyl]-3-yl)methyl)pyrrolidine-2-carboxamido)ethyl)-2-hydroxybenzoic acid] | 0.24 ×10⁻⁶ cm/s | 0.2 nM | 100% |

The remaining lines, values ahead:

| Papp A→B at 1 h, 10 μM [1] | EC50 [2] | cAMP human EP4 Emax [2] | SMILES |
| --- | --- | --- | --- |
| 0.11 ×10⁻⁶ cm/s | 3.16 nM | 95% | Cc1cc(S(N)(=O)=O)ccc1-c1cccc(CN2CCC[C@@H]2C(=O)N[C@@H](C)c2ccc(C(=O)O)c(O)c2)c1 [Example 18, 2-hydroxy-4-((S)-1-((R)-1-((2′-methyl-4′-sulfamoyl-[1,1′-biphenyl]-3-yl)methyl)pyrrolidine-2-carboxamido)ethyl)benzoic acid] |
| 0.245 ×10⁻⁶ cm/s | 0.158 nM | 91% | Cc1cc(C(N)=O)ccc1-c1cc(O)cc(CN2CC3CC2(C(=O)N[C@@H](C)c2ccc(C(=O)O)cc2)C3)c1 [Example 23, (S)-4-(1-(2-((4′-carbamoyl-5-hydroxy-2′-methyl-[1,1′-biphenyl]-3-yl)methyl)-2-azabicyclo[2.1.1]hexane-1-carboxamido)ethyl)benzoic acid] |
| < 0.28 ×10⁻⁶ cm/s | 6.31 nM | 85% | Cc1cc(S(N)(=O)=O)ccc1-c1cccc(CN2CC3CC2(C(=O)NC2(c4ccc(C(=O)O)cc4)CC2)C3)c1 [Example 27, 4-(1-(2-((2′-methyl-4′-sulfamoyl-[1,1′-biphenyl]-3-yl)methyl)-2-azabicyclo[2.1.1]hexane-1-carboxamido)cyclopropyl)benzoic acid] |
| < 0.11 ×10⁻⁶ cm/s | 6.31 nM | 91% | Cc1cc(C(N)=O)ccc1-c1cccc(CN2CC3CC2(C(=O)NC2(c4ccc(C(=O)O)cc4)CC2)C3)c1 [Example 29, 4-(1-(2-((4′-carbamoyl-2′-methyl-[1,1′-biphenyl]-3-yl)methyl)-2-azabicyclo[2.1.1]hexane-1-carboxamido)cyclopropyl)benzoic acid] |
| 0.45 ×10⁻⁶ cm/s | 0.02 nM | 98% | Cc1cc(C(N)=O)ccc1-c1cccc(CN2CCC[C@@H]2C(=O)NC2(c3ccc(C(=O)O)cc3)CC2)c1 [Example 31, (R)-4-(1-(1-((4′-carbamoyl-2′-methyl-[1,1′-biphenyl]-3-yl)methyl)pyrrolidine-2-carboxamido)cyclopropyl)benzoic acid] |
| 0.32 ×10⁻⁶ cm/s | 0.0316 nM | 97% | Cc1cc(O)ccc1-c1cc(O)cc(CN2CCC[C@@H]2C(=O)N[C@@H](C)c2ccc(C(=O)O)cc2)c1 [Example 33, 4-((S)-1-((R)-1-((4′,5-dihydroxy-2′-methyl-[1,1′-biphenyl]-3-yl)methyl)pyrrolidine-2-carboxamido)ethyl)benzoic acid] |
| < 0.1 ×10⁻⁶ cm/s | 0.0501 nM | 97% | Cc1cc(O)ccc1-c1cc(O)cc(CN2CCC[C@@H]2C(=O)N[C@@H](C)c2ccc(C(=O)O)c(O)c2)c1 [Example 35, 4-((S)-1-((R)-1-((4′,5-dihydroxy-2′-methyl-[1,1′-biphenyl]-3-yl)methyl)pyrrolidine-2-carboxamido)ethyl)-2-hydroxybenzoic acid] |
